In patent US8361969B2, “Designer cyclic peptides—HIV gp120 antagonists and their applications” (priority 2011, dated 2013):
Several values for one entry are separate records, joined by “and”; a condition that tells them apart may be missing. Identical values can stand only once. Non-standard residues stand in square brackets, D forms with d. Residues, ends and D or L forms follow the SMILES beside them. dBip = N[C@H](Cc1ccc(-c2ccccc2)cc1)C(=O)O

What was measured:
HIV-1 = conditions: read-out: IC50, inhibition of HIV-1 entry (attachment assay); compounds pre-equilibrated with the cells rather than with the virus; value represents lower boundary of actual activity
Excerpt: An attachment assay, described by Lackman-Smith et al., 2008, was used.

cells = conditions: highest tested concentration 100 μM

In the case of CC[C@H](C)[C@@H]1NC(=O)[C@H](CC(=O)O)NC(=O)[C@H](Cc2ccccc2)NC(=O)[C@H](CC(=O)O)NC(=O)[C@@H](CC(=O)O)NC(=O)[C@@H](Cc2ccc(-c3ccccc3)cc2)NC(=O)[C@H]2CCCN2C(=O)CNC(=O)[C@@H](CCC(=O)O)NC(=O)[C@@H](Cc2ccc(O)cc2)NC(=O)[C@H](CCCCN)NC(=O)[C@@H](CC(C)C)NC(=O)[C@@H](CC(=O)O)NC(=O)[C@H]([C@@H](C)CC)NC1=O [2-s4-98rp-39m-60-1_MC] (cyclo(DFDII[dD][dL]K[dY][dE]G[dP][dBip][dD])), the IC50 (HIV-1) is reported as ≤ 1640 nM and 1640 nM and the “cytotoxicity (none observed up to the highest tested concentration)” value (cells) is reported as greater than 100 µM.
